Target: T1, mu opiate receptor (MOR) (Rattus norvegicus, UniProt P33535)
T1 construct: from tissue; host or cells: striatum (membrane preparation)
Assay type: biochemical
Details: for Concentration of FLNA-Binding Compound as Agonist 0.1 μM / Concentration of FLNA-Binding Compound as Agonist 1 μM / Concentration of FLNA-Binding Compound as Agonist 1 μM + BFNA: [35S]GTPγS binding to Gαo in striatal membranes; for Concentration of FLNA-Binding Compound as Agonist 0.1 μM: compound 0.1 μM; for Concentration of FLNA-Binding Compound as Agonist 1 μM: compound 1 μM; for Concentration of FLNA-Binding Compound as Agonist 1 μM + BFNA: compound 1 μM plus 1 μM β-funaltrexamine (MOR antagonist)

T1 sequence (P33535 whole entry): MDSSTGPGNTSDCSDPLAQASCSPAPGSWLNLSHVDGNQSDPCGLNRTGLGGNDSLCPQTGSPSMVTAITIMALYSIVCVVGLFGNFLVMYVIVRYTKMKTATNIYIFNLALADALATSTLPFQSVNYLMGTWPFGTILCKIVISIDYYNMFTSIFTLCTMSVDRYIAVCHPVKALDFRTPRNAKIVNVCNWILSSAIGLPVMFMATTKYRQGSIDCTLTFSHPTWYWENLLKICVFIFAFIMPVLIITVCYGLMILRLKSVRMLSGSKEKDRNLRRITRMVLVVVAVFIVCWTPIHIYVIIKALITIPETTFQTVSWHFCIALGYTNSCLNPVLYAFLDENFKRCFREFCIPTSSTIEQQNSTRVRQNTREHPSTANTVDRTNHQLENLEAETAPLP

Row | SMILES | % DAMGO (0.1 μM) | % DAMGO (1 μM) | % DAMGO + BFNA | Concentration of FLNA-Binding Compound as Agonist 0.1 μM | Concentration of FLNA-Binding Compound as Agonist 1 μM | Concentration of FLNA-Binding Compound as Agonist 1 μM + BFNA
1 | CC1CCC(C(C)C)C(OCC(O)CN2CCCc3ccccc32)C1 (stereo not drawn) [Compound A0068] | 36.8% | 35.2% | 182.0% | 73.9% | 110.4% | 98.1%
2 | O=S(=O)(c1ccc(Br)c(C(F)(F)F)c1)N1CCC2(CC1)OCCN2S(=O)(=O)c1ccc(Br)c(C(F)(F)F)c1 [Compound C0077] | 109.5% | 104.9% | 621.4% | 192.7% | 265.4% | 136.7%
3 | COc1ccc(C(=O)N2CCC3(CC2)OCCN3S(=O)(=O)c2ccc(OC)cc2)cc1 [Compound C0018] | 110.7% | 95.5% | 162.1% | 195.5% | 247.7% | 106.5%
4 | CC1CCC(C(C)C)C(OCC(O)CN2CCCC2)C1 (stereo not drawn) [Compound A0001] | 63.1% | 78.9% | 83.8% | 94.3% | 181.7% | 22.2%
5 | Cc1ccc(C(C)C)c(OCC(O)CN2CC(C)OC(C)C2)c1 (stereo not drawn) [Compound A0028] | 81.3% | 73.8% | 443.7% | 143.6% | 187.7% | 116.7%
6 | CC1CCC(C(C)C)C(OCC(O)CN2CCc3ccccc3C2)C1 (stereo not drawn) [Compound A0040] | 23.5% | 54.0% | 22.6% | 46.1% | 149.0% | 16.7%
7 | CC1CCC(C(C)C)C(OCC(O)CN2CCCCC2C)C1 (stereo not drawn) [Compound A0007] | 68.3% | 96.4% | 152.5% | 102.0% | 221.9% | 40.4%
8 | CC1CN(CC(O)COC2CCCCC2)CC(C)O1 (stereo not drawn) [Compound A0017] | 96.9% | 100.4% | 187.9% | 161.9% | 246.0% | 65.2%
9 | CC1CN(CC(O)COc2ccc(Cl)cc2)CC(C)O1 (stereo not drawn) [Compound A0047] | 118.8% | 92.4% | 157.6% | 233.0% | 255.0% | 116.5%
10 | COc1c2c(cc3c1C(CC(=O)c1ccc(C#N)cc1)[N+](C)(C)CC3)OCO2 (stereo not drawn) [Compound B0001] | 77.4% | 74.9% | 43.1% | 128.2% | 202.3% | 28.0%
11 | CC1CCC(C(C)C)C(OCC(O)CN2CCCN(C)CC2)C1 (stereo not drawn) [Compound A0010] | 161.9% | 119.5% | 365.3% | 277.2% | 319.0% | 190.3%
12 | CC(=O)c1ccc(S(=O)(=O)N2CCC3(CC2)OCC(CCCCN(C)C)N3S(=O)(=O)c2ccc(C(C)=O)cc2)cc1 (stereo not drawn) [Compound C0080M] | 112.1% | 92.4% | 351.8% | 187.9% | 205.4% | 167.1%
13 | O=S(=O)(c1cccs1)N1CCC2(CC1)OCCN2S(=O)(=O)c1cccs1 [Compound C0141M] | 109.9% | 105.8% | 121.9% | 161.5% | 213.9% | 47.9%
14 | COc1ccccc1CC(O)CC1c2c(cc3c(c2OC)OCO3)CC[N+]1(C)C (stereo not drawn) [Compound B0032] | 115.0% | 109.0% | 35.5% | 221.1% | 297.7% | 15.6%

Source: patent publication US10760052B2, “Method of inhibiting tau phosphorylation” (priority 2012, dated 2020)
